The target of assay [1] is T1, Free fatty acid receptor 3 (Homo sapiens, UniProt O14843).
T1 sequence (O14843 whole entry): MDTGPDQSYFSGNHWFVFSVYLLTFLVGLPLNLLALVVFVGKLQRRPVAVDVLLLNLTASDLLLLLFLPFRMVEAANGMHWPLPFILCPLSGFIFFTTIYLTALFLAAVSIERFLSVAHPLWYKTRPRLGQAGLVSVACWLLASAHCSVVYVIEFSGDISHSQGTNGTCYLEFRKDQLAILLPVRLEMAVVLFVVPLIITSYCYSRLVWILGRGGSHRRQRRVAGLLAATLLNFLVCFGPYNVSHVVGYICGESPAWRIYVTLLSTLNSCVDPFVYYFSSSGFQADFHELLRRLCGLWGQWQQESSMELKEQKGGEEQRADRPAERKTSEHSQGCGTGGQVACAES
Kind of assay: Agonist activity at FFA3 (unknown origin) expressed in human Flp-In-293 cells assessed as inhibition of forskolin-stimulated cAMP accumulation incubated for 30 mins by Lance cAMP assay. The class given is cell-based.

In assay [2] the target is Hydroxycarboxylic acid receptor 2 (Homo sapiens, UniProt Q8TDS4). Put plainly: Agonist activity at human HCA2 expressed in human Flp-In-293 cells assessed as inhibition of forskolin-stimulated cAMP accumulation incubated for 30 mins by Lance cAMP assay. In kind it is cell-based. Background: Cyclic AMP is a second messenger, typically raised through Gs and lowered through Gi signalling.

Assay [3] deals with Staphylococcus aureus. Put plainly: Antibacterial activity against Staphylococcus aureus assessed as bacterial growth inhibition by broth microdilution method. In kind it is functional.
Assay [4] relates to Escherichia coli. Put plainly: Antibacterial activity against Escherichia coli assessed as bacterial growth inhibition by broth microdilution method. The class given is functional. A general note: In broth dilution the organism is exposed to a series of concentrations in liquid medium.
Assay [5] deals with Klebsiella pneumoniae. Put plainly: Antibacterial activity against Klebsiella pneumoniae assessed as bacterial growth inhibition by broth microdilution method. In kind it is functional.
Assay [6] deals with Pseudomonas aeruginosa. Put plainly: Antibacterial activity against Pseudomonas aeruginosa assessed as bacterial growth inhibition by broth microdilution method. In kind it is functional.
Assay [7] deals with Aspergillus flavus. Kind of assay: Antifungal activity against Aspergillus flavus assessed as fungal growth inhibition by broth microdilution method. The class given is functional.
In assay [8] the test system is Candida albicans. Put plainly: Antifungal activity against Candida albicans assessed as fungal growth inhibition by broth microdilution method. In kind it is functional.
For assay [9], the system named is Staphylococcus aureus. Put plainly: Antibacterial activity against Staphylococcus aureus MTCC 96 assessed as bacterial growth inhibition incubated for 24 hrs by broth microdilution method. The class given is functional.
For assay [10], the system named is Staphylococcus aureus. Put plainly: Antimicrobial activity against Staphylococcus aureus assessed as diameter of inhibition zone at 1 mg/ml incubated for 48 hrs by agar disk diffusion method. The class given is functional. To be noted: read-out: DIZ. On the technique in general: Agar diffusion results depend on both activity and mobility in agar.
A further assay deals with Bacillus cereus. Kind of assay: Antimicrobial activity against Bacillus cereus assessed as diameter of inhibition zone at 1 mg/ml incubated for 48 hrs by agar disk diffusion method. The class given is functional. To be noted: read-out: DIZ.
Assay [11] relates to Escherichia coli. Kind of assay: Antimicrobial activity against Escherichia coli assessed as diameter of inhibition zone at 1 mg/ml incubated for 48 hrs by agar disk diffusion method. In kind it is functional. To be noted: read-out: DIZ.
Assay [12] concerns Klebsiella pneumoniae. Put plainly: Antimicrobial activity against Klebsiella pneumoniae assessed as diameter of inhibition zone at 1 mg/ml incubated for 48 hrs by agar disk diffusion method. In kind it is functional. The following applies: read-out: DIZ.
In assay [13] the test system is Pseudomonas aeruginosa. Kind of assay: Antimicrobial activity against Pseudomonas aeruginosa assessed as diameter of inhibition zone at 1 mg/ml incubated for 48 hrs by agar disk diffusion method. In kind it is functional. The following applies: read-out: DIZ.
In assay [14] the test system is Aspergillus niger. Put plainly: Antifungal activity against Aspergillus niger assessed as diameter of inhibition zone at 1 mg/ml incubated for 72 to 91 hrs by agar disk diffusion method. The class given is functional. To be noted: time 72-91 hrs, read-out: DIZ.
For the next assay, the system named is Penicillium chrysogenum. Put plainly: Antifungal activity against Penicillium chrysogenum assessed as diameter of inhibition zone at 1 mg/ml incubated for 72 to 91 hrs by agar disk diffusion method. The class given is functional. To be noted: time 72-91 hrs, read-out: DIZ.
Assay [15] concerns Staphylococcus aureus. Kind of assay: Antibacterial activity against Staphylococcus aureus MLS-16 MTCC 2940 assessed as bacterial growth inhibition incubated for 24 hrs by broth microdilution method. In kind it is functional.
Assay [16] has as its system Mycobacterium tuberculosis. Kind of assay: Antitubercular activity against Mycobacterium tuberculosis H37Rv assessed as bacterial growth inhibition at 250 ug/ml. In kind it is functional.
Assay [17] deals with Mycobacterium tuberculosis. Put plainly: Antitubercular activity against Mycobacterium tuberculosis H37Rv assessed as bacterial growth inhibition at 100 ug/ml. The class given is functional.
In assay [18] the test system is Candida albicans. Kind of assay: Antifungal activity against Candida albicans assessed as inhibition of fungal growth. The class given is functional.
The subject of assay [19] is Aspergillus niger. Kind of assay: Antifungal activity against Aspergillus niger assessed as inhibition of fungal growth. In kind it is functional.
Assay [20] concerns Aspergillus flavus. Put plainly: Antifungal activity against Aspergillus flavus assessed as inhibition of fungal growth. In kind it is functional.
Assay [21] relates to Staphylococcus aureus. Kind of assay: Antibacterial activity against Staphylococcus aureus assessed as diameter of inhibition zone. The class given is functional.
For a further assay, the system named is Bacillus subtilis. Kind of assay: Antibacterial activity against Bacillus subtilis assessed as diameter of inhibition zone. The class given is functional.
For assay [22], the system named is Escherichia coli. Kind of assay: Antibacterial activity against Escherichia coli assessed as diameter of inhibition zone. The class given is functional.
For another assay, the system named is Salmonella typhimurium. Kind of assay: Antibacterial activity against Salmonella typhimurium assessed as diameter of inhibition zone. The class given is functional, Salmonella enterica subsp. enterica serovar Typhimurium.
The target in the next assay is Urease (Canavalia ensiformis, UniProt P07374). Kind of assay: Inhibition of jack bean urease by phenol red method.

By EC50 is commonly meant the concentration at which the effect is half-maximal. What is called MIC is the smallest concentration in the dilution series that meets the test's criterion for growth inhibition. In general, inhibition refers to the percentage by which the read-out fell short of the control. A word on the IC50: it is the point on the concentration scale where inhibition reaches its midpoint. The low end stands for inhibition by little substance, the high end for a need for much substance.

Values after ≈ are worked out from the molar mass of the structure shown.

Hydroxycarboxylic acid receptor 2, sequence (Q8TDS4 whole entry): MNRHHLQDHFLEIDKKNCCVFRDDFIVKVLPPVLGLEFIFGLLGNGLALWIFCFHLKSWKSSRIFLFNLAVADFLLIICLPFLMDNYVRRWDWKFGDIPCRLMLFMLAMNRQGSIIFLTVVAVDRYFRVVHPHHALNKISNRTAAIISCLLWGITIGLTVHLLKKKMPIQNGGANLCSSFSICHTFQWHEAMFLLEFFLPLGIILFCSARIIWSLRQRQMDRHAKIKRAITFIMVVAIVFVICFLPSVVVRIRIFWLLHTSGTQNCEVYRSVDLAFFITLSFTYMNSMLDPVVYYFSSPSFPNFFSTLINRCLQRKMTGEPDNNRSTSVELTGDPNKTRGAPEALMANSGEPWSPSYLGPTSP
Urease, sequence (P07374 whole entry): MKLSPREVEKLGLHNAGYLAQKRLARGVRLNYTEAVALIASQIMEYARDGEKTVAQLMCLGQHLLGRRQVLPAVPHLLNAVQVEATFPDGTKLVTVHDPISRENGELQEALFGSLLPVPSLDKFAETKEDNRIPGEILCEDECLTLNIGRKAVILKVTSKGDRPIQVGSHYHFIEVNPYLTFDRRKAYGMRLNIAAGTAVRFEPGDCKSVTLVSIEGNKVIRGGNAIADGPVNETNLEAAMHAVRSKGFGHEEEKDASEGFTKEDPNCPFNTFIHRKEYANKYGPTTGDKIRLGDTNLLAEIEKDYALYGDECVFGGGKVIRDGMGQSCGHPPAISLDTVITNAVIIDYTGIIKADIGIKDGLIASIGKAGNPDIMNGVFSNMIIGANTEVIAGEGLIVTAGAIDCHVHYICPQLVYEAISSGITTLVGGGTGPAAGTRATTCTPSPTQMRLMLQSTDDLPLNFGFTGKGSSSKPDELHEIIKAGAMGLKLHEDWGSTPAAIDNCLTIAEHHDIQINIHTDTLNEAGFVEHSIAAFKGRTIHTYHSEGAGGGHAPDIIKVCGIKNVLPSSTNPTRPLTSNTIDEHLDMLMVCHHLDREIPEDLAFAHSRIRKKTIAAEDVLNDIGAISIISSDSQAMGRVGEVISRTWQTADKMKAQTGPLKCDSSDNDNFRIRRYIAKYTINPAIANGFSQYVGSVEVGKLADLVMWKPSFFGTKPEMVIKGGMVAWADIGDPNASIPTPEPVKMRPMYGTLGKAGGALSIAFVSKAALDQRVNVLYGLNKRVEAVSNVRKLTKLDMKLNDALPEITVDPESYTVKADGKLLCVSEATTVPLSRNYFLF

Turning to `CCCc1cc(=O)oc2[nH]c(=S)[nH]c(=O)c12`, the half-maximal effective concentration (EC50) in [1] was found to be 220 nM; in assay [2], 51 nM.
`CCc1cc(=O)oc2[nH]c(=S)[nH]c(=O)c12`: the EC50 in assay [1] came out at 220 nM; in assay [2] it was 51 nM.
With `CCO/C=N/C1=C(C#N)C(c2cccc(OC)c2OC)c2c(n(C)c(=O)n(C)c2=O)O1` (configuration not stated), the MIC in the assay on Staphylococcus aureus [3] was 6.25 µg/mL (≈ 14.7 µM); in the assay on Escherichia coli [4] it was 6.25 µg/mL (≈ 14.7 µM); in the assay with Klebsiella pneumoniae [5], 6.25 µg/mL (≈ 14.7 µM); with Pseudomonas aeruginosa [6] it was 6.25 µg/mL (≈ 14.7 µM); in the assay with Aspergillus flavus [7], 3.12 µg/mL (≈ 7.32 µM); in the assay on Candida albicans [8], 6.25 µg/mL (≈ 14.7 µM).
For `COc1ccc(C2c3c(Nc4ccccc4)ncnc3Oc3cc(C)oc(=O)c32)cc1` (configuration not stated), the minimal inhibitory concentration (MIC) in the assay on Staphylococcus aureus [9] is 7.8 µg/mL (≈ 18.9 µM).
Turning to `COC(=O)C1=C(N)Oc2[nH]c(=S)[nH]c(=O)c2C1c1ccc(O)cc1` (configuration not stated), the zone of inhibition at 1000 µg/mL in the assay with Staphylococcus aureus [10] was 21 mm; with Bacillus cereus, 18 mm; with Escherichia coli [11], 21 mm; in the assay on Klebsiella pneumoniae [12] it was 22 mm; with Pseudomonas aeruginosa [13], 18 mm; in the assay on Aspergillus niger [14], 23 mm. Also, the zone of inhibition at 1000 µg/mL in the assay with Penicillium chrysogenum was 23 mm.
On to `Cc1cc2c(c(=O)o1)C(c1ccccc1)c1c(Nc3ccc(Cl)cc3)ncnc1O2` (configuration not stated), for which the MIC in the assay with Staphylococcus aureus [15] stood at 15.6 µg/mL (≈ 37.3 µM).
With `CCO/C=N/C1=C(C#N)C(c2ccc(Cl)cc2)c2c(n(C)c(=O)n(C)c2=O)O1` (configuration not stated), the MIC turned out to be 6.25 µg/mL (≈ 15.6 µM) in the assay with Staphylococcus aureus [3]; 6.25 µg/mL (≈ 15.6 µM) with Escherichia coli [4]; 6.25 µg/mL (≈ 15.6 µM) in the assay with Klebsiella pneumoniae [5]; 6.25 µg/mL (≈ 15.6 µM) with Pseudomonas aeruginosa [6]; 3.12 µg/mL (≈ 7.78 µM) with Aspergillus flavus [7]; 3.12 µg/mL (≈ 7.78 µM) in the assay with Candida albicans [8].
Take `OC(Cn1cncn1)(Cn1cncn1)c1ccc(F)cc1F` [FLUCONAZOLE]: the MIC with Aspergillus flavus [7] and in the assay on Candida albicans [8] was 1.56 µg/mL (≈ 5.09 µM) each time.
As for `Cc1cc2c(c(=O)o1)C(c1ccccc1)c1c(Nc3cccc([N+](=O)[O-])c3)ncnc1O2` (configuration not stated), the minimum inhibitory concentration (MIC) with Staphylococcus aureus [9] was 7.8 µg/mL (≈ 18.2 µM); in the assay on Staphylococcus aureus [15], 15.6 µg/mL (≈ 36.4 µM).
On to `CO[C@H]1/C=C/O[C@@]2(C)Oc3c(C)c(O)c4c(O)c(c(/C=N/N5CCN(C)CC5)c(O)c4c3C2=O)NC(=O)/C(C)=C\C=C\[C@H](C)[C@H](O)[C@@H](C)[C@@H](O)[C@@H](C)[C@H](OC(C)=O)[C@@H]1C` [RIFAMPIN], for which the inhibition at 250 µg/mL in assay [16] was determined as 98%. Further, in assay [17], the inhibition at 100 µg/mL came to 98%.
`O=c1cc(CCCCCl)c2c(=O)[nH]c(=S)[nH]c2o1`: the EC50 in [1] turned out to be 220 nM; in assay [2] it was 51 nM.
Consider `CCC1C(C#N)=C(N)Oc2[nH]c(=O)[nH]c(=O)c21` (configuration not stated), for which the MIC was 125 µg/mL (≈ 534 µM) in the assay on Candida albicans [18], 162 µg/mL (≈ 694 µM) in the assay with Aspergillus niger [19] and 150 µg/mL (≈ 640 µM) in the assay with Aspergillus flavus [20].
On to `CCCCc1cc(=O)oc2[nH]c(=S)[nH]c(=O)c12`, for which the EC50 was found to be 220 nM in [1] and 51 nM in [2].
Turning to `CCO/C=N/C1=C(C#N)C(c2cc(OC)ccc2OC)c2c(n(C)c(=O)n(C)c2=O)O1` (configuration not stated), the minimum inhibitory concentration (MIC) is 6.25 µg/mL (≈ 14.7 µM) in the assay with Staphylococcus aureus [3]; 6.25 µg/mL (≈ 14.7 µM) in the assay with Escherichia coli [4]; 6.25 µg/mL (≈ 14.7 µM) in the assay with Klebsiella pneumoniae [5]; 6.25 µg/mL (≈ 14.7 µM) with Pseudomonas aeruginosa [6]; 3.12 µg/mL (≈ 7.32 µM) in the assay on Aspergillus flavus [7]; 3.12 µg/mL (≈ 7.32 µM) in the assay on Candida albicans [8].
With `N#CC1=C(N)Oc2[nH]c(=O)[nH]c(=O)c2C1c1ccc(Cl)cc1` (configuration not stated), the “diameter of the inhibition zone (DIZ)” value in the assay with Staphylococcus aureus [21] stood at 18 mm; in the assay with Bacillus subtilis, 16 mm; in the assay with Escherichia coli [22], 16 mm; in the assay on Salmonella typhimurium it was 20 mm. In addition, the MIC in the assay on Candida albicans [18] came to 125 µg/mL (≈ 395 µM); in the assay on Aspergillus niger [19], 162 µg/mL (≈ 513 µM); in the assay on Aspergillus flavus [20] it was 150 µg/mL (≈ 474 µM). The compound also gave an IC50 at Urease of 49700 nM.
Take `COC(=O)C1=C(N)Oc2[nH]c(=S)[nH]c(=O)c2C1c1ccccc1Cl` (configuration not stated): the zone of inhibition at 1000 µg/mL stood at 11 mm in the assay with Staphylococcus aureus [10]; 9 mm in the assay with Escherichia coli [11]; 4 mm in the assay on Pseudomonas aeruginosa [13]; 0 mm with Aspergillus niger [14]; 0 mm with Penicillium chrysogenum.

The values are drawn from ChEMBL document CHEMBL5241112, “Insights into the recent progress in the medicinal chemistry of pyranopyrimidine analogs” (RSC Med Chem, 2022).
